Each block holds one compound with its values, some of them ahead of it.
Assays:
[1] = Soya methyl esters solubilization into water by cosolvent; settings: about 25° C.
Description: Mixtures of water and soya methyl esters (Stepan Chemical, Northfield, Ill.) are prepared at 10/90, 25/75, 50/50, 75/25 and 90/10 volume ratios.

[2] = 2,2,4-Trimethyl-1,3-pentanediol (2-methylpropanoate) (Texanol) solubilization into water by cosolvent; settings: about 25° C.
Description: To assess the ability of Et-LGK to solubilize Texanol into water, Et-LGK is added to each of these mixtures with vigorous stirring in a 20 mL scintillation vial at about 25° C. until a clear solution is obtained.
The concentrations of these comparative solvents (in volume %) needed in each case to form a clear solution is reported in Table 6 as Comparative Samples G, H and I, respectively.

[3] = Castor oil solubilization into water by cosolvent; settings: about 25° C.
Description: Mixtures of water and castor oil ChemistryStore.com; Cayce, S.C.) are prepared at 10/90, 25/75, 50/50, 75/25 and 90/10 volume ratios. […] To assess the ability of Et-LGK to solubilize castor oil into water, Et-LGK is added to each of these mixtures with vigorous stirring in a 20 mL scintillation vial at about 25° C. until a clear solution is obtained.

[4] = Isobutyl isobutyrate (IBIB) solubilization into water by cosolvent; settings: about 25° C.
Description: To assess the ability of Et-LGK to solubilize IBIB into water, Et-LGK is added to each of these mixtures with vigorous stirring in a 20 mL scintillation vial at about 25° C. until a clear solution is obtained.

[5] = Miscibility of alkyl ketal esters with water; type: physicochemical; settings: for miscibility with water: miscibility assessed at 25° C. unless stated otherwise
Description: The term “miscible” and its variations (“miscibility”, etc.) are used herein as a synonym for “soluble”, as that term is defined above. A material may be fully or partially miscible in another. As used herein, a material said to be “miscible” in another, without further qualification, is miscible with that other material in all proportions, i.e., mixtures that contain only the two components form clear homogenous solutions in all weight ratios from 99.9:0.1 to 0.1:99.9. A material is said to be “highly miscible” in another material if it is soluble in the other material to the extent of at least 20 parts in 80 parts of the other material, and preferably is soluble in that other material to the extent of at least 50 parts in 50 parts of the other material. A “highly miscible” material may be soluble in the other material to the extent of 99.9 parts to 0.1 part of that other material and all lower proportions. A material is said to be “sparingly miscible” in another (or has “low miscibility” in another material) if is immiscible (as defined below) therein or otherwise not soluble in that other material to the extent of 20 parts in 80 parts of the other material. A sparingly miscible material may be soluble in that other material to the extent of no more than 10 parts in 90 parts of that other material, and may be soluble in that other material to the extent of no more than 5 parts in 95 parts of the other material. A material is said to be “immiscible” in another if it is not soluble by itself in that material to the extent of at least 1 part per 99 parts of the other material. Unless stated otherwise, miscibility is assessed at 25° C.

[6] = Bleach and peroxide stability evaluations with Et-LGK (GC/FID); type: physicochemical; settings: after storing for 96 hours
Description: Examples 2-3 and a control (non-bleach) formulation are prepared by combining the ingredients indicated in Table 1 in a 20 ml borosilicate glass scintillation vial, followed by shaking vigorously to form a clear, colorless solution. All formulations are clear, colorless homogenous solutions after standing for three days at room temperature.
After storing for 96 hours, GC/FID analysis is performed to assess the stability of Examples 2 and 3 and Comparative Sample A. Three analyses are performed with each test sample. […] For Example 1, the Et-LGK concentration is about 9.4%, indicating a slight degradation of the material in the presence of the chlorine bleach.

[7] = Miscibility of alkyl ketal esters with organic compounds; type: physicochemical; settings: methanol, ethanol, tetrahydrofuran, acetone, ethyl acetate, methylene chloride, toluene, cyclohexane, acetic acid, poly(propylene glycol), mineral, castor, canola, corn, sunflower oil
Description: The term “miscible” and its variations (“miscibility”, etc.) are used herein as a synonym for “soluble”, as that term is defined above. A material may be fully or partially miscible in another. As used herein, a material said to be “miscible” in another, without further qualification, is miscible with that other material in all proportions, i.e., mixtures that contain only the two components form clear homogenous solutions in all weight ratios from 99.9:0.1 to 0.1:99.9. A material is said to be “highly miscible” in another material if it is soluble in the other material to the extent of at least 20 parts in 80 parts of the other material, and preferably is soluble in that other material to the extent of at least 50 parts in 50 parts of the other material. A “highly miscible” material may be soluble in the other material to the extent of 99.9 parts to 0.1 part of that other material and all lower proportions. A material is said to be “sparingly miscible” in another (or has “low miscibility” in another material) if is immiscible (as defined below) therein or otherwise not soluble in that other material to the extent of 20 parts in 80 parts of the other material. […] Unless stated otherwise, miscibility is assessed at 25° C.

[8] = Et-LPK solubilization in Et-LGK/water mixtures (visual miscibility); type: physicochemical
Description: Several three-component mixtures of Et-LGK, water and Et-LPK are prepared by mixing the materials the above materials at room temperature in a 20 ml scintillation vial with shaking. The mixtures prepared are analyzed visually for miscibility. Clear mixture are considered to be “miscible”, and mixtures, which are cloudy or form two or more distinct phases are considered to be “immiscible” on this test.

[9] = Bleach stability evaluation with Et-LPK (GC-FID purity); type: physicochemical; settings: 8 ml Et-LPK stirred overnight with 2 ml 6% sodium hypochlorite in water; organic phase analysed
Description: The purity of an Et-LPK sample is measured by GC-FID (Model No. 7890A Gas Chromatograph w/ Flame Ionization Detector; Agilent Technologies, Santa Clara, Calif.). In a 20 ml vial (borosilicate scintillation; VWR International, West Chester, Pa.), 2 ml of a 6% sodium hypochlorite (bleach; Clorox Co., Oakland, Calif.) in water is mixed with 8 ml of Et-LPK to form a mixture. The mixture is shaken vigorously to produce a nearly clear solution. The mixture is further stirred overnight on a magnetic stir plate with a magnetic stir bar. Upon standing, the mixture separates into two phases—an upper organic phase and a bottom aqueous phase. A sample of the organic phase is analyzed by GC-FID to determine the purity of the Et-LPK after mixing.

SMILES: COC(C)COC(C)CO (centres unmarked) [DPGMME, dipropylene glycol monomethyl ether]
- Required amount of cosolvent to obtain clear solution ([1]; 10/90 Water/soya methyl ester ratio by volume): 48.3 vol.-%
- Required amount of cosolvent to obtain clear solution ([1]; 25/75 Water/soya methyl ester ratio by volume): 62.6 vol.-%
- Required amount of cosolvent to obtain clear solution ([1]; 50/50 Water/soya methyl ester ratio by volume): 73.6 vol.-%
- Required amount of cosolvent to obtain clear solution ([1]; 75/25 Water/soya methyl ester ratio by volume): 78.3 vol.-%
- Required amount of cosolvent to obtain clear solution ([1]; 90/10 Water/soya methyl ester ratio by volume): 78.3 vol.-%
- Required amount of cosolvent to obtain clear solution ([2]; 10/90 Water/Texanol ratio by volume): 44.4 vol.-%
- Required amount of cosolvent to obtain clear solution ([2]; 25/75 Water/Texanol ratio by volume): 50.9 vol.-%
- Required amount of cosolvent to obtain clear solution ([2]; 50/50 Water/Texanol ratio by volume): 55.2 vol.-%
- Required amount of cosolvent to obtain clear solution ([2]; 75/25 Water/Texanol ratio by volume): 54.1 vol.-%
- Required amount of cosolvent to obtain clear solution ([2]; 90/10 Water/Texanol ratio by volume): 51.6 vol.-%
- Required amount of cosolvent to obtain clear solution ([3]; 10/90 Water/castor oil ratio by volume): 55.9 vol.-%
- Required amount of cosolvent to obtain clear solution ([3]; 25/75 Water/castor oil ratio by volume): 65.4 vol.-%
- Required amount of cosolvent to obtain clear solution ([3]; 50/50 Water/castor oil ratio by volume): 73.5 vol.-%
- Required amount of cosolvent to obtain clear solution ([3]; 75/25 Water/castor oil ratio by volume): 78.9 vol.-%
- Required amount of cosolvent to obtain clear solution ([3]; 90/10 Water/castor oil ratio by volume): 80.6 vol.-%
- Required amount of cosolvent to obtain clear solution ([4]; 10/90 Water/IBIB ratio by volume): 54.5 vol. %
- Required amount of cosolvent to obtain clear solution ([4]; 25/75 Water/IBIB ratio by volume): 53.3 vol. %
- Required amount of cosolvent to obtain clear solution ([4]; 50/50 Water/IBIB ratio by volume): 58.9 vol. %
- Required amount of cosolvent to obtain clear solution ([4]; 75/25 Water/IBIB ratio by volume): 60.0 vol. %
- Required amount of cosolvent to obtain clear solution ([4]; 90/10 Water/IBIB ratio by volume): 62.5 vol. %

SMILES: CCOC(=O)CC1(C)OCC(CO)O1 (centres unmarked) [Et-AcAcGK]
- miscibility with water [5]: miscible with water in all proportions

SMILES: COC(=O)CC1(C)OCC(CO)O1 (centres unmarked) [Me-AcAcGK]
- miscibility with water [5]: miscible with water in all proportions

SMILES: COC(=O)CCC1(C)OCC(CO)O1 (centres unmarked) [Me-LGK]
- miscibility with water [5]: miscible with water in all proportions

SMILES: CCCCOC(=O)CCC1(C)OCC(CO)O1 (centres unmarked) [n-butyl-LGK]
- miscible with water to the extent of [5]: about 1 part per 99 parts water

SMILES: CCCOC(=O)CCC1(C)OCC(CO)O1 (centres unmarked) [n-propyl-LGK]
- miscible with water to the extent of [5]: about 1 part per 99 parts water

More lines, main results first:

- miscible in water to the extent of [5]: about 5 parts per 95 parts of water
SMILES: CCOC(=O)CCC1(C)OCCO1 [Et-LEK]

- miscibility with water [5]: miscible in water in all proportions
- Et-LGK concentration (GC/FID) ([6]; control (non-bleach) formulation): about 10%
- Et-LGK concentration (GC/FID) ([6]; formulation with 6% sodium hypochlorite solution (Table 1 'Example 1')): about 9.4%
- Et-LGK concentration (GC/FID) ([6]; formulation with hydrogen peroxide (Table 1 'Example 2')): the same as the control
SMILES: CCOC(=O)CCC1(C)OCC(CO)O1 (centres unmarked) [Et-LGK]

- miscible in water to the extent of [5]: about 2.5 parts in 97.5 parts of water
- Et-LPK concentration obtained in a miscible mixture with water and Et-LGK ([8]; Mixture 18): ~55 wt. %
- miscibility of Et-LPK in water ([8]; at the 10.9% level, no Et-LGK): immiscible
- change in purity of Et-LPK (GC-FID) versus initial purity [9]: little to no change in the purity
SMILES: CCOC(=O)CCC1(C)OCC(C)O1 (centres unmarked) [Et-LPK]
- dissolves or is miscible with organic compounds to the extent of [7]: at least 20 parts of the organic compound in 80 parts of ethyl-LPK

From patent US20120128614A1, “SOLVENT, SOLUTION, CLEANING COMPOSITION AND METHODS” (SEGETIS, INC., priority 2009, published 2012)
